According to the kinase profiling compilation of Christmann-Franck et al. (2016):

Assays:
Assay in all cases: radiometric filter-binding kinase assay
RIPK2 (human) = RIPK2 (human) (UniProt O43353)
CAMKK2 (human) = CAMKK2 (human) (UniProt Q96RR4)
CaMK1 (human) = CaMK1 (human) (UniProt Q14012)
IKBKE (human) = IKBKE (human) (UniProt Q14164)
EPHA4 (human) = EPHA4 (human) (UniProt P54764)
MINK1 (human) = MINK1 (human) (UniProt Q8N4C8)
DYRK1A (human) = DYRK1A (human) (UniProt Q13627)
MELK (human) = MELK (human) (UniProt Q14680)
MAPK12 (human) = MAPK12 (human) (UniProt P53778)
IGF1R (human) = IGF1R (human) (UniProt P08069)
EPHB3 (human) = EPHB3 (human) (UniProt P54753)
MAP3K11 (human) = MAP3K11 (human) (UniProt Q16584)
MAP2K2 (human) = MAP2K2 (human) (UniProt P36507)
IKBKB (human) = IKBKB (human) (UniProt O14920)
MAPK14 (human) = MAPK14 (human) (UniProt Q16539)
EPHB2 (human) = EPHB2 (human) (UniProt P29323)
MAPK8 (human) = MAPK8 (human) (UniProt P45983)
MAP3K7 TAB1 (human) = MAP3K7 TAB1 (human) (UniProt Q15750+O43318)
PRKACA (human) = PRKACA (human) (UniProt P17612)
HIPK2 (human) = HIPK2 (human) (UniProt Q9H2X6)
MAPKAPK2 (human) = MAPKAPK2 (human) (UniProt P49137)
DYRK2 (human) = DYRK2 (human) (UniProt Q92630)
PIM1 (human) = PIM1 (human) (UniProt P11309)
PAK4 (human) = PAK4 (human) (UniProt O96013)
YES1 (human) = YES1 (human) (UniProt P07947)
CSK (human) = CSK (human) (UniProt P41240)
BRSK1 (human) = BRSK1 (human) (UniProt Q8TDC3)
MAPK15 (human) = MAPK15 (human) (UniProt Q8TD08); conditions: compound 100.0 µM
AURKB (human) = AURKB (human) (UniProt Q96GD4)
MKNK2 (human) = MKNK2 (human) (UniProt Q9HBH9)
PAK7 (human) = PAK7 (human) (UniProt Q9P286)
MAPK9 (human) = MAPK9 (human) (UniProt P45984)
BTK (human) = BTK (human) (UniProt Q06187)
MAPKAPK5 (human) = MAPKAPK5 (human) (UniProt Q8IW41)
CSNK1D (human) = CSNK1D (human) (UniProt P48730)

BRSK1 (human), sequence (Q8TDC3 whole entry, looked up): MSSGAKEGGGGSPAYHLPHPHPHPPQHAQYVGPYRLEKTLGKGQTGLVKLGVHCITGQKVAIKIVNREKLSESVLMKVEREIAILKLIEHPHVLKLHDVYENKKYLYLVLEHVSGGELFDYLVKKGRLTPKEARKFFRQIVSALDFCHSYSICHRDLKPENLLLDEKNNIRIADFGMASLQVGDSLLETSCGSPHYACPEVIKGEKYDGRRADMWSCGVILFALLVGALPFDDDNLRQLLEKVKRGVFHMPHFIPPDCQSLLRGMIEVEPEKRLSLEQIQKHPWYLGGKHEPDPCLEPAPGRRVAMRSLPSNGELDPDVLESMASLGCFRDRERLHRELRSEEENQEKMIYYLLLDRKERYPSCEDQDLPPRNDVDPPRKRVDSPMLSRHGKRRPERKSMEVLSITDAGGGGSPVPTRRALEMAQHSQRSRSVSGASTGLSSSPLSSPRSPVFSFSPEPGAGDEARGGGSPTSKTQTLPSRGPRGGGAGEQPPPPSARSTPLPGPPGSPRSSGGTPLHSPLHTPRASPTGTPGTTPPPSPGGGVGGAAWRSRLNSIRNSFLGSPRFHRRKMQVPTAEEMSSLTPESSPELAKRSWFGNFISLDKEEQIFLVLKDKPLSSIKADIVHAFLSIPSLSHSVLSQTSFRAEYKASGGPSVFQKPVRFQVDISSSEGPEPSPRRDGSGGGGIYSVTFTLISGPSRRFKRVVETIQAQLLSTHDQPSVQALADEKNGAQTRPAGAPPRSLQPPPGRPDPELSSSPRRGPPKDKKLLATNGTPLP
CaMK1 (human), sequence (Q14012 whole entry, looked up): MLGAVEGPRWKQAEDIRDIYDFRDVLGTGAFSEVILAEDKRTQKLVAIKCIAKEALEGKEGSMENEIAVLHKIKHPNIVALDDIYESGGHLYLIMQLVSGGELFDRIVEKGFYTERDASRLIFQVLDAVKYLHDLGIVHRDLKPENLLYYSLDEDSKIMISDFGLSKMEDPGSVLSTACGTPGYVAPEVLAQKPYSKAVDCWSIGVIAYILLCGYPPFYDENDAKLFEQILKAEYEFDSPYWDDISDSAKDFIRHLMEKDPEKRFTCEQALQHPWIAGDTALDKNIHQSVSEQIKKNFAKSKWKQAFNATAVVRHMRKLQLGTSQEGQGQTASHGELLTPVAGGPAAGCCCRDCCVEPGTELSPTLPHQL
IKBKB (human), sequence (O14920 whole entry, looked up): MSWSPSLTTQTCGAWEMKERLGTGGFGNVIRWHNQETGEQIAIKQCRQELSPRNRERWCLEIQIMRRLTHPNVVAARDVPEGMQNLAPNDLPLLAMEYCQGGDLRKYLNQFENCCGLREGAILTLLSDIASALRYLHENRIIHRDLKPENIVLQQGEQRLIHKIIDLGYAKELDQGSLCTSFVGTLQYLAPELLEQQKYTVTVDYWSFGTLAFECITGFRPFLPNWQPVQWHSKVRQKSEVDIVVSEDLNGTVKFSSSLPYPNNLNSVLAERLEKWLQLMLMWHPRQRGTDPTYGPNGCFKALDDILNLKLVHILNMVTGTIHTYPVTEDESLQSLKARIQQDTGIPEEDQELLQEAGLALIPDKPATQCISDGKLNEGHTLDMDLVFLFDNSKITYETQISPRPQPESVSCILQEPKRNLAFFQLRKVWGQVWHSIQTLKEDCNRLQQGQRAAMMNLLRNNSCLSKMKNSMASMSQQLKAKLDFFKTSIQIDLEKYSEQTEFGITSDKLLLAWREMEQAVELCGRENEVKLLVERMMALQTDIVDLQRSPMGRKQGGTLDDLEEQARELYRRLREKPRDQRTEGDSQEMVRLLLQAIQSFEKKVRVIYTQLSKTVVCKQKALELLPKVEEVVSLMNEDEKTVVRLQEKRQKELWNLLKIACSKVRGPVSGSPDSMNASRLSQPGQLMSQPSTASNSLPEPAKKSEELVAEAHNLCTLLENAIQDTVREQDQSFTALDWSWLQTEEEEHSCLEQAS
CAMKK2 (human), sequence (Q96RR4 whole entry, looked up): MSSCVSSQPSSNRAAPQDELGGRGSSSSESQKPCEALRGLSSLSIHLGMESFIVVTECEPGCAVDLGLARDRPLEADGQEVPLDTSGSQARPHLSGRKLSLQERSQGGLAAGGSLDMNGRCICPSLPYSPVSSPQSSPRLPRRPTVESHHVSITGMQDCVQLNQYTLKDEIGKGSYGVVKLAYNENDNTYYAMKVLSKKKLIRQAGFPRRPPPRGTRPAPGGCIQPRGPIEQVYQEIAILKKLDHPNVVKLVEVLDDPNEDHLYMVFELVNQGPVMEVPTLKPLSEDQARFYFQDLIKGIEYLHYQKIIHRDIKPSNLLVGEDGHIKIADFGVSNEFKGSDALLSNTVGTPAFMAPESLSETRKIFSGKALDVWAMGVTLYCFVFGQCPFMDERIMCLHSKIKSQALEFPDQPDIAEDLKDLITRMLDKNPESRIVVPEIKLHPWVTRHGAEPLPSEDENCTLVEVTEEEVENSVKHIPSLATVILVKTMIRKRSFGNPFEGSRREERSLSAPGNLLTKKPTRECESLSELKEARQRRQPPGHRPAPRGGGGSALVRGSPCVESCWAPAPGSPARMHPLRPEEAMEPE
PAK4 (human), sequence (O96013 whole entry, looked up): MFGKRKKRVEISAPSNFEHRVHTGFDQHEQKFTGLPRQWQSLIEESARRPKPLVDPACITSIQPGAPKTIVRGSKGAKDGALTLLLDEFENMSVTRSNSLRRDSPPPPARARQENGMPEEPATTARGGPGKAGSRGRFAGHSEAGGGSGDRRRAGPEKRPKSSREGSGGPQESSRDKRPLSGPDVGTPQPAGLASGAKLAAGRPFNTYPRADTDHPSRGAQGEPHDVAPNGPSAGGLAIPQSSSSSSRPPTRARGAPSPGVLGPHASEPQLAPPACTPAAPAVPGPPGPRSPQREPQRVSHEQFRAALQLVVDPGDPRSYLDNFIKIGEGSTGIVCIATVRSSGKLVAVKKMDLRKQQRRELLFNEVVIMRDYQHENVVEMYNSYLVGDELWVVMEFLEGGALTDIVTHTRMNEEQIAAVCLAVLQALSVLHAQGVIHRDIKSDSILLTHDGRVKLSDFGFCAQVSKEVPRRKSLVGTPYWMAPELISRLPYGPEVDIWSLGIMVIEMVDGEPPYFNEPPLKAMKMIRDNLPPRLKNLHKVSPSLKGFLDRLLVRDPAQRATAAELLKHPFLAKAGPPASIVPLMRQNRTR
PIM1 (human), sequence (P11309 whole entry, looked up): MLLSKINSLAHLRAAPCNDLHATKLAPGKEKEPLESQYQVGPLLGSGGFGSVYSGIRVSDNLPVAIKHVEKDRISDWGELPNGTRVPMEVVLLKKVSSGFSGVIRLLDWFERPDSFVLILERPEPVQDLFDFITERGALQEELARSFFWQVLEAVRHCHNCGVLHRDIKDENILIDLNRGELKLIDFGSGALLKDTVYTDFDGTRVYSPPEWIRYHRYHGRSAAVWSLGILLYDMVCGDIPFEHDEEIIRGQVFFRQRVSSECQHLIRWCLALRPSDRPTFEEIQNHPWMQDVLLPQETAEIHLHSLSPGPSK
HIPK2 (human), sequence (Q9H2X6 whole entry, looked up): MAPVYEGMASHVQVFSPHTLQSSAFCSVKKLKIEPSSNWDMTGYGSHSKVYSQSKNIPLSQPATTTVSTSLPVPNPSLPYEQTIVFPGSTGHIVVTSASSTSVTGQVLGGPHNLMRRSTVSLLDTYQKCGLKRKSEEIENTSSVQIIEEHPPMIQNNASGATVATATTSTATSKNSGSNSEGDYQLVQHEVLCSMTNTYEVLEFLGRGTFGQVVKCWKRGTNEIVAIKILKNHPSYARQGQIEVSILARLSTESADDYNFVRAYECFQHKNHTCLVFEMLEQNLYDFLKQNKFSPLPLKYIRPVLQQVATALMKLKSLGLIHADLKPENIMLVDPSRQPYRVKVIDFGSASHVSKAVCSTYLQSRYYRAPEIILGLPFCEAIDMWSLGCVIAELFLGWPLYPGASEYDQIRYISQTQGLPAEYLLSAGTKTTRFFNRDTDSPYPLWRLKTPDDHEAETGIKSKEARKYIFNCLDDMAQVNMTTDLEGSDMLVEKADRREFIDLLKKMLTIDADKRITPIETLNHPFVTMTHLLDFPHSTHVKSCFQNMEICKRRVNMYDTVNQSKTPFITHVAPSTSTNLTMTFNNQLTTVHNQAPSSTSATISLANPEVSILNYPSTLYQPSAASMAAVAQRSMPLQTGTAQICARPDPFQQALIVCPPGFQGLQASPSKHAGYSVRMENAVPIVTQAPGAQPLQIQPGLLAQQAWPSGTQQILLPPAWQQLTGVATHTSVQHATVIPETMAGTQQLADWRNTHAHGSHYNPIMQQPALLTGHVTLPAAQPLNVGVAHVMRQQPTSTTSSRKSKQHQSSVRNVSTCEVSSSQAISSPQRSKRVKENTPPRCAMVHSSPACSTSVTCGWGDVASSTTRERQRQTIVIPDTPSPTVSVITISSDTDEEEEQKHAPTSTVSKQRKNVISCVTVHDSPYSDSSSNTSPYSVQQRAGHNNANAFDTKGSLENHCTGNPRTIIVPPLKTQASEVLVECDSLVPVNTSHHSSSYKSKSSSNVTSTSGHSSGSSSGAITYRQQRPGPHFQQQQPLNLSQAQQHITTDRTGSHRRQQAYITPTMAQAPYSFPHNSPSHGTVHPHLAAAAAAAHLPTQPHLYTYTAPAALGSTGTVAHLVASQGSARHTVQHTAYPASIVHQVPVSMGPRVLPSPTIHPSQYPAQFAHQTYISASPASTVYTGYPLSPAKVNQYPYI
AURKB (human), sequence (Q96GD4 whole entry, looked up): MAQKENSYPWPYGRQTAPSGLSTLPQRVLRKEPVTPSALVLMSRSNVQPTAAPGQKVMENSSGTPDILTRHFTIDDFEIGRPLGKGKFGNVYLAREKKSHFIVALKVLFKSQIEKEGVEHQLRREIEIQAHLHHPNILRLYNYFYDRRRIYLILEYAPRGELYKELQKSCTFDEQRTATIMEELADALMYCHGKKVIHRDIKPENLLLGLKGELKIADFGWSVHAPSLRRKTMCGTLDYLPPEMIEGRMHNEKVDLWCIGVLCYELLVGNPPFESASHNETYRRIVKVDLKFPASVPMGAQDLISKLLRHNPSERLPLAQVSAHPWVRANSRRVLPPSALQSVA

With Cc1cc(N=Nc2cc(S(=O)(=O)O)c(C)cc2C)c(N)cc1O the residual activity (RIPK2 (human); compound 100.0 µM) was 46%, the residual activity (CAMKK2 (human); compound 100.0 µM) was 99% and the residual activity (CaMK1 (human); compound 100.0 µM) was 45%. The residual activity (IKBKE (human); compound 100.0 µM) was 94%, the residual activity (EPHA4 (human); compound 100.0 µM) was 92% and the residual activity (MINK1 (human); compound 100.0 µM) was 62%. For the same compound, the residual activity (DYRK1A (human); compound 100.0 µM) was 113%, the residual activity (MELK (human); compound 100.0 µM) was 87% and the residual activity (MAPK12 (human); compound 100.0 µM) was 108%. For the same compound, the residual activity (IGF1R (human); compound 100.0 µM) was 109%, the residual activity (EPHB3 (human); compound 100.0 µM) was 48% and the residual activity (MAP3K11 (human); compound 100.0 µM) was 83%. The residual activity (MAP2K2 (human); compound 100.0 µM) was 109%, the residual activity (IKBKB (human); compound 100.0 µM) was 97% and the residual activity (MAPK14 (human); compound 100.0 µM) was 58%. It also gave a residual activity (EPHB2 (human); compound 100.0 µM) of 96%, a residual activity (MAPK8 (human); compound 100.0 µM) of 113% and a residual activity (MAP3K7 TAB1 (human); compound 100.0 µM) of 31%. For the same compound, the residual activity (PRKACA (human); compound 100.0 µM) was 90%, the residual activity (HIPK2 (human); compound 100.0 µM) was 42% and the residual activity (MAPKAPK2 (human); compound 100.0 µM) was 107%. It also gave a residual activity (DYRK2 (human); compound 100.0 µM) of 78%, a residual activity (PIM1 (human); compound 100.0 µM) of 62% and a residual activity (PAK4 (human); compound 100.0 µM) of 70%. For the same compound, the residual activity (YES1 (human); compound 100.0 µM) was 52%, the residual activity (CSK (human); compound 100.0 µM) was 132% and the residual activity (BRSK1 (human); compound 100.0 µM) was 76%. It also gave a residual activity (MAPK15 (human)) of 65%, a residual activity (AURKB (human); compound 100.0 µM) of 93% and a residual activity (MKNK2 (human); compound 100.0 µM) of 100%. For the same compound, the residual activity (PAK7 (human); compound 100.0 µM) was 87%, the residual activity (MAPK9 (human); compound 100.0 µM) was 112% and the residual activity (BTK (human); compound 100.0 µM) was 102%. The residual activity (MAPKAPK5 (human); compound 100.0 µM) was 70%.

Cc1nc(-c2ccc(OCC(C)C)c(C#N)c2)sc1C(=O)O was tested, and the residual activity (RIPK2 (human); compound 1.0 µM) was 97%, the residual activity (RIPK2 (human); compound 10.0 µM) was 88% and the residual activity (CAMKK2 (human); compound 1.0 µM) was 92%. For the same compound, the residual activity (CAMKK2 (human); compound 10.0 µM) was 73%, the residual activity (CaMK1 (human); compound 1.0 µM) was 98% and the residual activity (CaMK1 (human); compound 10.0 µM) was 93%. It also gave a residual activity (IKBKE (human); compound 1.0 µM) of 138%, a residual activity (IKBKE (human); compound 10.0 µM) of 100% and a residual activity (EPHA4 (human); compound 10.0 µM) of 107%. For the same compound, the residual activity (MINK1 (human); compound 10.0 µM) was 104%, the residual activity (DYRK1A (human); compound 1.0 µM) was 102% and the residual activity (DYRK1A (human); compound 10.0 µM) was 85%. It also gave a residual activity (MELK (human); compound 1.0 µM) of 84%, a residual activity (MELK (human); compound 10.0 µM) of 87% and a residual activity (MAPK12 (human); compound 1.0 µM) of 84%. For the same compound, the residual activity (MAPK12 (human); compound 10.0 µM) was 96%, the residual activity (IGF1R (human); compound 1.0 µM) was 93% and the residual activity (IGF1R (human); compound 10.0 µM) was 89%. The residual activity (EPHB3 (human); compound 10.0 µM) was 83%, the residual activity (MAP3K11 (human); compound 1.0 µM) was 80% and the residual activity (MAP3K11 (human); compound 10.0 µM) was 47%. For the same compound, the residual activity (MAP2K2 (human); compound 1.0 µM) was 77%, the residual activity (MAP2K2 (human); compound 10.0 µM) was 73% and the residual activity (IKBKB (human); compound 1.0 µM) was 100%. For the same compound, the residual activity (IKBKB (human); compound 10.0 µM) was 99%, the residual activity (MAPK14 (human); compound 1.0 µM) was 105% and the residual activity (EPHB2 (human); compound 1.0 µM) was 122%. It also gave a residual activity (EPHB2 (human); compound 10.0 µM) of 102%, a residual activity (MAPK8 (human); compound 1.0 µM) of 95% and a residual activity (MAPK8 (human); compound 10.0 µM) of 103%. The residual activity (MAP3K7 TAB1 (human); compound 1.0 µM) was 88%, the residual activity (MAP3K7 TAB1 (human); compound 10.0 µM) was 81% and the residual activity (PRKACA (human); compound 1.0 µM) was 99%. It also gave a residual activity (PRKACA (human); compound 10.0 µM) of 91%, a residual activity (HIPK2 (human); compound 1.0 µM) of 100% and a residual activity (HIPK2 (human); compound 10.0 µM) of 98%. The residual activity (MAPKAPK2 (human); compound 10.0 µM) was 44%, the residual activity (DYRK2 (human); compound 1.0 µM) was 95% and the residual activity (DYRK2 (human); compound 10.0 µM) was 83%. For the same compound, the residual activity (PIM1 (human); compound 1.0 µM) was 83%, the residual activity (PIM1 (human); compound 10.0 µM) was 66% and the residual activity (PAK4 (human); compound 1.0 µM) was 85%. For the same compound, the residual activity (PAK4 (human); compound 10.0 µM) was 67%, the residual activity (YES1 (human); compound 1.0 µM) was 117% and the residual activity (CSK (human); compound 1.0 µM) was 148%. The residual activity (CSK (human); compound 10.0 µM) was 119%, the residual activity (BRSK1 (human); compound 1.0 µM) was 94% and the residual activity (BRSK1 (human); compound 10.0 µM) was 91%. It also gave a residual activity (AURKB (human); compound 1.0 µM) of 95%, a residual activity (AURKB (human); compound 10.0 µM) of 96% and a residual activity (MKNK2 (human); compound 1.0 µM) of 105%. The residual activity (MKNK2 (human); compound 10.0 µM) was 91%, the residual activity (PAK7 (human); compound 1.0 µM) was 101% and the residual activity (PAK7 (human); compound 10.0 µM) was 88%. For the same compound, the residual activity (MAPK9 (human); compound 1.0 µM) was 90%, the residual activity (MAPK9 (human); compound 10.0 µM) was 86% and the residual activity (BTK (human); compound 1.0 µM) was 103%. It also gave a residual activity (BTK (human); compound 10.0 µM) of 101%, a residual activity (MAPKAPK5 (human); compound 1.0 µM) of 87% and a residual activity (MAPKAPK5 (human); compound 10.0 µM) of 82%. It also gave a residual activity (CSNK1D (human); compound 1.0 µM) of 79% and a residual activity (CSNK1D (human); compound 10.0 µM) of 93%.
